Legend:
Assay in all cases: Ba/F3 drug screening, Cell Titer Glo, IC50 Mut/WT
Format in all cases: cell-based
EGFR G719A = target: T1, EGFR G719A (Homo sapiens, UniProt P00533, G719A)
T1 construct: expressed in transfected cells; host or cells: Ba/F3

EGFR L833V = target: T2, EGFR L833V (Homo sapiens, UniProt P00533, L833V); details: Classical-Like, 72 hours
T2 construct: expressed in transfected cells; host or cells: Ba/F3 cells, retroviral pBabe-Puro vector

EGFR G724S = target: T3, EGFR G724S (Homo sapiens, UniProt P00533, G724S)
T3 construct: expressed in transfected cells; host or cells: Ba/F3
Method: (§1) Data represent the ratio of the IC50 value for a given TKI for cells with a PACC EGFR mutation to the IC50 value for cells with wildtype EGFR.
(§2) Ba/F3 cell generation, drug screening, and IC50 approximations. Ba/F3 cells were obtained as a gift from Dr. Gordon Mills (MD Anderson Cancer Center), and maintained in RPMI (Sigma) containing 10% FBS, 1% penicillin/streptomycin, and 10 ng/ml recombinant mIL-3 (R&D Biosystems). To establish stable Ba/F3 cell lines, Ba/F3 cells were transduced with retroviruses containing mutant EGFR plasmids for 12-24 hours.
(§3) After 48-72 hours of transduction, 2 μg/ml puromycin (Invitrogen) was added to Ba/F3 cell lines in complete RPMI. To select for EGFR positive cell lines, cells were stained with PE-EGFR (Biolegend) and sorted by FACS. After sorting, EGFR positive cells were maintained in RPMI containing 10% FBS, 1% penicillin/streptomycin, and 1 ng/ml EGF to support cell viability. Drug screening was performed as previously described^41,42. Shortly, cells were plated in 384-well plates (Greiner Bio-One) at 2000-3000 cells per well in technical triplicate. Seven different concentrations of TKIs or DMSO vehicle were added to reach a final volume of 40 μL per well. After 72 hours, 11 μL of Cell Titer Glo (Promega) was added to each well. Plates were incubated for a minimum of 10 minutes, and bioluminescence was determined using a FLUOstar OPTIMA plate reader (BMG LABTECH). Raw bioluminescence values were normalized to DMSO control treated cells, and values were plotted in GraphPad Prism. […] Drug screens were performed in technical triplicate on each plate and either duplicate or triplicate biological replicates.

EGFR D761N = target: T4, EGFR D761N (Homo sapiens, UniProt P00533, D761N); details: Classical-Like, 72 hours
T4 construct: expressed in transfected cells; host or cells: Ba/F3 cells, retroviral pBabe-Puro vector

EGFR G724S T790M = target: T5, EGFR G724S T790M (Homo sapiens, UniProt P00533, G724S/T790M); details: T790M-like-3R, 72 hours
T5 construct: expressed in transfected cells; host or cells: Ba/F3

EGFR V774M = target: T6, EGFR V774M (Homo sapiens, UniProt P00533, V774M)
T6 construct: host or cells: Ba/F3
Method: as §1, §2, §3

EGFR D770insNPG = target: T7, EGFR D770insNPG (Homo sapiens, UniProt P00533, INS770NPG); details: Ex20, 72 hours
T7 construct: expressed in transfected cells; host or cells: Ba/F3 cells, retroviral pBabe-Puro vector
Method: (§4) Data represent the ratio of the IC50 value for a given TKI for cells with an ex20ins EGFR mutation to the IC50 value for cells with wildtype EGFR.
as §2
(§5) After 48-72 hours of transduction, 2 μg/ml puromycin (Invitrogen) was added to Ba/F3 cell lines in complete RPMI. To select for EGFR positive cell lines, cells were stained with PE-EGFR (Biolegend) and sorted by FACS. After sorting, EGFR positive cells were maintained in RPMI containing 10% FBS, 1% penicillin/streptomycin, and 1 ng/ml EGF to support cell viability. Drug screening was performed as previously described^41,42. Shortly, cells were plated in 384-well plates (Greiner Bio-One) at 2000-3000 cells per well in technical triplicate. Seven different concentrations of TKIs or DMSO vehicle were added to reach a final volume of 40 μL per well. After 72 hours, 11 μL of Cell Titer Glo (Promega) was added to each well. Plates were incubated for a minimum of 10 minutes, and bioluminescence was determined using a FLUOstar OPTIMA plate reader (BMG LABTECH). Raw bioluminescence values were normalized to DMSO control treated cells, and values were plotted in GraphPad Prism. […] Drug screens were performed in technical triplicate on each plate and either duplicate or triplicate biological replicates. […] Statistical differences between groups were determined by ANOVA as described in the figure legends.

EGFR Ex19del/L792H = target: T8, EGFR Ex19del/L792H (Homo sapiens, UniProt P00533, DEL746-750/L792H)
T8 construct: expressed in transfected cells; host or cells: Ba/F3

EGFR L747P = target: T9, EGFR L747P (Homo sapiens, UniProt P00533, L747P)
T9 construct: expressed in transfected cells; host or cells: Ba/F3
Method: as §1, §2, §5

EGFR Ex19del/T790M/L792H = target: T10, EGFR Ex19del/T790M/L792H (Homo sapiens, UniProt P00533, DEL746-750/L792H/T790M); details: T790M-like-3R, 72 hours
T10 construct: expressed in transfected cells; host or cells: Ba/F3

EGFR E709K = target: T11, EGFR E709K (Homo sapiens, UniProt P00533, E709K)
T11 construct: expressed in transfected cells; host or cells: Ba/F3

EGFR N771dupN = target: T12, EGFR N771dupN (Homo sapiens, UniProt P00533, DUP771-771); details: Ex20, 72 hours
T12 construct: expressed in transfected cells; host or cells: Ba/F3 cells, retroviral pBabe-Puro vector

EGFR G719S T790M = target: T13, EGFR G719S T790M (Homo sapiens, UniProt P00533, G719S/T790M); details: T790M-like-3S, 72 hours
T13 construct: expressed in transfected cells; host or cells: Ba/F3

EGFR V769L = target: T14, EGFR V769L (Homo sapiens, UniProt P00533, V769L)
T14 construct: expressed in transfected cells; host or cells: Ba/F3
Method: as §1, §2, §3

EGFR H773insNPH = target: T15, EGFR H773insNPH (Homo sapiens, UniProt P00533, INS773NPH); details: Ex20, 72 hours
T15 construct: expressed in transfected cells; host or cells: Ba/F3 cells, retroviral pBabe-Puro vector

EGFR S768I/T790M = target: T16, EGFR S768I/T790M (Homo sapiens, UniProt P00533, S768I/T790M); details: T790M-like-3S, 72 hours
T16 construct: expressed in transfected cells; host or cells: Ba/F3

EGFR Ex19del L718V = target: T17, EGFR Ex19del L718V (Homo sapiens, UniProt P00533, DEL746-750/L718V)
T17 construct: expressed in transfected cells; host or cells: Ba/F3
Method: as §1, §2, §3

EGFR S811F = target: T18, EGFR S811F (Homo sapiens, UniProt P00533, S811F); details: Classical-Like, 72 hours
T18 construct: expressed in transfected cells; host or cells: Ba/F3 cells, retroviral pBabe-Puro vector (vector made by GeneScript from EGFR WT)
Method: (§6) Data represent the ratio of the IC50 value for a given TKI for cells with a classical-like EGFR mutation to the IC50 value for cells with wildtype EGFR.
as §2
(§7) After 48-72 hours of transduction, 2 μg/ml puromycin (Invitrogen) was added to Ba/F3 cell lines in complete RPMI. To select for EGFR positive cell lines, cells were stained with PE-EGFR (Biolegend) and sorted by FACS. After sorting, EGFR positive cells were maintained in RPMI containing 10% FBS, 1% penicillin/streptomycin, and 1 ng/ml EGF to support cell viability. […] Shortly, cells were plated in 384-well plates (Greiner Bio-One) at 2000-3000 cells per well in technical triplicate. Seven different concentrations of TKIs or DMSO vehicle were added to reach a final volume of 40 μL per well. After 72 hours, 11 μL of Cell Titer Glo (Promega) was added to each well. Plates were incubated for a minimum of 10 minutes, and bioluminescence was determined using a FLUOstar OPTIMA plate reader (BMG LABTECH). Raw bioluminescence values were normalized to DMSO control treated cells, and values were plotted in GraphPad Prism. […] Drug screens were performed in technical triplicate on each plate and either duplicate or triplicate biological replicates.

EGFR A767insASV = target: T19, EGFR A767insASV (Homo sapiens, UniProt P00533, DUP767-769); details: Ex20, 72 hours
T19 construct: expressed in transfected cells; host or cells: Ba/F3 cells, retroviral pBabe-Puro vector

EGFR E709A G719S = target: T20, EGFR E709A G719S (Homo sapiens, UniProt P00533, E709A/G719S)
T20 construct: expressed in transfected cells; host or cells: Ba/F3

EGFR Ex19del T854I = target: T21, EGFR Ex19del T854I (Homo sapiens, UniProt P00533, DEL746-750/T854I)
T21 construct: expressed in transfected cells; host or cells: Ba/F3 (retroviral transduction, pBabe-Puro based vectors)

EGFR S768dupSVD = target: T22, EGFR S768dupSVD (Homo sapiens, UniProt P00533, DUP768-770); details: Ex20, 72 hours
T22 construct: expressed in transfected cells; host or cells: Ba/F3 cells, retroviral pBabe-Puro vector
Method: as §4, §2, §5

EGFR K754E = target: T23, EGFR K754E (Homo sapiens, UniProt P00533, K754E); details: Classical-Like, 72 hours
T23 construct: expressed in transfected cells; host or cells: Ba/F3 cells, retroviral pBabe-Puro vector
Method: as §6, §2, §7

EGFR L858R T790M V843I = target: T24, EGFR L858R T790M V843I (Homo sapiens, UniProt P00533, L858R/T790M/V843I); details: T790M-like-3S, 72 hours
T24 construct: expressed in transfected cells; host or cells: Ba/F3
Method: Data represent the ratio of the IC50 value for a given TKI for cells with a T790M-like-3S EGFR mutation to the IC50 value for cells with wildtype EGFR.
as §2, §3

EGFR T790M = target: T25, EGFR T790M (Homo sapiens, UniProt P00533, T790M); details: T790M-like-3S, 72 hours
T25 construct: expressed in transfected cells; host or cells: Ba/F3

EGFR L858R G724S = target: T26, EGFR L858R G724S (Homo sapiens, UniProt P00533, G724S/L858R)
T26 construct: expressed in transfected cells; host or cells: Ba/F3 (retroviral transduction, pBabe-Puro based vectors)

EGFR A763insLQEA = target: T27, EGFR A763insLQEA (Homo sapiens, UniProt P00533, INS763LQEA); details: Classical-Like, 72 hours
T27 construct: expressed in transfected cells; host or cells: Ba/F3 cells, retroviral pBabe-Puro vector
Method: as §6, §2, §7

EGFR E709A = target: T28, EGFR E709A (Homo sapiens, UniProt P00533, E709A)
T28 construct: expressed in transfected cells; host or cells: Ba/F3
Method: as §1, §2, §3

SMILES	ratio of IC50 for cells with mutant EGFR to IC50 for cells with wildtype EGFR (Mut/WT) (EGFR L833V)	ratio of IC50 for cells with mutant EGFR to IC50 for cells with wildtype EGFR (Mut/WT) (EGFR D761N)	ratio of IC50 for cells with mutant EGFR to IC50 for cells with wildtype EGFR (Mut/WT) (EGFR G724S T790M)	ratio of IC50 for cells with mutant EGFR to IC50 for cells with wildtype EGFR (Mut/WT) (EGFR D770insNPG)	ratio of IC50 for cells with mutant EGFR to IC50 for cells with wildtype EGFR (Mut/WT) (EGFR Ex19del/T790M/L792H)	ratio of IC50 for cells with mutant EGFR to IC50 for cells with wildtype EGFR (Mut/WT) (EGFR N771dupN)	ratio of IC50 for cells with mutant EGFR to IC50 for cells with wildtype EGFR (Mut/WT) (EGFR G719S T790M)	ratio of IC50 for cells with mutant EGFR to IC50 for cells with wildtype EGFR (Mut/WT) (EGFR H773insNPH)	ratio of IC50 for cells with mutant EGFR to IC50 for cells with wildtype EGFR (Mut/WT) (EGFR S768I/T790M)	ratio of IC50 for cells with mutant EGFR to IC50 for cells with wildtype EGFR (Mut/WT) (EGFR S811F)	ratio of IC50 for cells with mutant EGFR to IC50 for cells with wildtype EGFR (Mut/WT) (EGFR A767insASV)	ratio of IC50 for cells with mutant EGFR to IC50 for cells with wildtype EGFR (Mut/WT) (EGFR S768dupSVD)	ratio of IC50 for cells with mutant EGFR to IC50 for cells with wildtype EGFR (Mut/WT) (EGFR K754E)	ratio of IC50 for cells with mutant EGFR to IC50 for cells with wildtype EGFR (Mut/WT) (EGFR L858R T790M V843I)	ratio of IC50 for cells with mutant EGFR to IC50 for cells with wildtype EGFR (Mut/WT) (EGFR T790M)	ratio of IC50 for cells with mutant EGFR to IC50 for cells with wildtype EGFR (Mut/WT) (EGFR A763insLQEA)	other results
COc1cc2ncnc(Nc3ccc(F)c(Cl)c3)c2cc1NC(=O)/C=C/CN1CCCCC1 [Dacomitinib]	0.06272	0.0008794	12.05	5.404	48.51	6.261	3.776	1.645	1.282	0.1673	3.057	0.882	0.03231	20.06	6.061	0.001484	ratio of IC50 for cells with mutant EGFR to IC50 for cells with wildtype EGFR (Mut/WT) (EGFR G719A; PACC, G719A, Ba/F3, 72 hours): 0.001888; ratio of IC50 for cells with mutant EGFR to IC50 for cells with wildtype EGFR (Mut/WT) (EGFR G724S; PACC, G724S, Ba/F3, 72 hours): 0.2379; ratio of IC50 for cells with mutant EGFR to IC50 for cells with wildtype EGFR (Mut/WT) (EGFR V774M; PACC, V774M, Ba/F3, 72 hours): 0.04513; ratio of IC50 for cells with mutant EGFR to IC50 for cells with wildtype EGFR (Mut/WT) (EGFR Ex19del/L792H; PACC, Ex19del/L792H, Ba/F3, 72 hours): 0.2436; ratio of IC50 for cells with mutant EGFR to IC50 for cells with wildtype EGFR (Mut/WT) (EGFR L747P; PACC, L747P, Ba/F3, 72 hours): 0.2972; ratio of IC50 for cells with mutant EGFR to IC50 for cells with wildtype EGFR (Mut/WT) (EGFR E709K; PACC, E709K, Ba/F3, 72 hours): 0.2711; ratio of IC50 for cells with mutant EGFR to IC50 for cells with wildtype EGFR (Mut/WT) (EGFR V769L; PACC, V769L, Ba/F3, 72 hours): 0.1402; ratio of IC50 for cells with mutant EGFR to IC50 for cells with wildtype EGFR (Mut/WT) (EGFR Ex19del L718V; PACC, Ex19del L718V, Ba/F3, 72 hours): 0.0061; ratio of IC50 for cells with mutant EGFR to IC50 for cells with wildtype EGFR (Mut/WT) (EGFR E709A G719S; PACC, E709A G719S, Ba/F3, 72 hours): 0.001614; ratio of IC50 for cells with mutant EGFR to IC50 for cells with wildtype EGFR (Mut/WT) (EGFR Ex19del T854I; PACC, Ex19del T854I, Ba/F3, 72 hours): 0.4127; ratio of IC50 for cells with mutant EGFR to IC50 for cells with wildtype EGFR (Mut/WT) (EGFR L858R G724S; PACC, L858R G724S, Ba/F3, 72 hours): 0.0005712; ratio of IC50 for cells with mutant EGFR to IC50 for cells with wildtype EGFR (Mut/WT) (EGFR E709A; PACC, E709A, Ba/F3, 72 hours): 0.04024
C=CC(=O)N[C@H]1C=C(C)c2c(-c3cnc4ccccc4c3)c3c(N)ncnc3n2C1 [TAS 6417]	0.03111	0.2474	0.1693	0.0168	0.0002637	0.05134	0.032	0.1843	0.1153	0.009026	0.1359	0.05773	0.004475	0.07336	0.6671	0.005254	ratio of the IC50 value for cells with a PACC EGFR mutation to the IC50 value for cells with wildtype EGFR (EGFR G719A; Ba/F3 cells, EGFR G719A (PACC), Mut/WT): 0.01801; ratio of the IC50 value for cells with a PACC EGFR mutation to the IC50 value for cells with wildtype EGFR (EGFR G724S; Ba/F3 cells, EGFR G724S (PACC), Mut/WT): 3.055; ratio of the IC50 value for cells with a PACC EGFR mutation to the IC50 value for cells with wildtype EGFR (EGFR V774M; Ba/F3 cells, EGFR V774M (PACC), Mut/WT): 0.3282; ratio of the IC50 value for cells with a PACC EGFR mutation to the IC50 value for cells with wildtype EGFR (EGFR Ex19del/L792H; Ba/F3 cells, EGFR Ex19del/L792H (PACC), Mut/WT): 0.008269; ratio of the IC50 value for cells with a PACC EGFR mutation to the IC50 value for cells with wildtype EGFR (EGFR L747P; Ba/F3 cells, EGFR L747P (PACC), Mut/WT): 0.1949; ratio of the IC50 value for cells with a PACC EGFR mutation to the IC50 value for cells with wildtype EGFR (EGFR E709K; Ba/F3 cells, EGFR E709K (PACC), Mut/WT): 0.2516; ratio of the IC50 value for cells with a PACC EGFR mutation to the IC50 value for cells with wildtype EGFR (EGFR V769L; Ba/F3 cells, EGFR V769L (PACC), Mut/WT): 0.159; ratio of the IC50 value for cells with a PACC EGFR mutation to the IC50 value for cells with wildtype EGFR (EGFR Ex19del L718V; Ba/F3 cells, EGFR Ex19del L718V (PACC), Mut/WT): 0.0009364; ratio of the IC50 value for cells with a PACC EGFR mutation to the IC50 value for cells with wildtype EGFR (EGFR E709A G719S; Ba/F3 cells, EGFR E709A G719S (PACC), Mut/WT): 0.03472; ratio of the IC50 value for cells with a PACC EGFR mutation to the IC50 value for cells with wildtype EGFR (EGFR Ex19del T854I; Ba/F3 cells, EGFR Ex19del T854I (PACC), Mut/WT): 0.0152; ratio of the IC50 value for cells with a PACC EGFR mutation to the IC50 value for cells with wildtype EGFR (EGFR L858R G724S; Ba/F3 cells, EGFR L858R G724S (PACC), Mut/WT): 0.01631; ratio of the IC50 value for cells with a PACC EGFR mutation to the IC50 value for cells with wildtype EGFR (EGFR E709A; Ba/F3 cells, EGFR E709A (PACC), Mut/WT): 0.3054

From US20240384350A1, “METHODS OF TREATING CANCER WITH KINASE INHIBITORS” (BOARD OF REGENTS, THE UNIVERSITY OF TEXAS SYSTEM, priority 2021, published 2024)
